Test [1] concerns the target IL-17A(FLAG-Tagged): IL-17RA(His-Tagged) binding (Homo sapiens, UniProt Q16552, K93Q). Description: IL-17A(FLAG-tagged):IL-17RA(His-tagged) binding disruption Eu-HTRF assay, Protocol 2. To be noted: FLAG-IL-17A 1 nM; average if tested more than once. Summed up: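 FLAG-tagged IL-17A (1 nM final) was preincubated with compound (2-fold serial dilutions, 22 points) for 1 h at rt in PBS + 0.01% Triton X-100. 10×His-IL-17RA, Eu-anti-FLAG and D2-anti-His in buffer containing KF were then added for 2 h at rt. IC50 came from the 665/615 nm HTRF ratio fitted to a one-site competition model.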

Test [2] deals with IL-17A-induced G-CSF production in human normal keratinocyte (NHK). Description: NHK assay: IL-17A-induced G-CSF production in normal human keratinocytes. Format: cell-based. The following applies: 24 h, IL-17A 5 ng/mL, G-CSF by HTRF, average if tested more than once. Summed up: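 Stimulus rhIL-17A 5 ng/mL final, premixed 1 h rt with compound; adult NHK, 5% FBS, 0.2% DMSO. Viability by CellTiter-Glo vs DMSO.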

Chain of UniProt Q16552 (Q16552 with tags, fused parts or gaps K93Q): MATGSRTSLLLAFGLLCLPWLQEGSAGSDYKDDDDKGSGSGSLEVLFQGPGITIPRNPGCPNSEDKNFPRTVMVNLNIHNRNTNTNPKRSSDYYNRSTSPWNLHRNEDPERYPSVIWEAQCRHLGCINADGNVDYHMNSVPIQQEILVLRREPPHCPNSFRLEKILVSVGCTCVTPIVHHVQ

On to `[2H]C1([2H])NC(=O)N([C@H](COC)c2cnn3cc([C@H](CCC(C)(C)C(F)(F)F)NC(=O)c4nonc4C(F)(F)F)nc3c2)C([2H])([2H])C1(F)F` [Example 83, N—((S)-1-(7-((S)-1-(5,5-Difluoro-2-oxotetrahydropyrimidin-1(2H)-yl-4,4,6,6-d4)-2-methoxyethyl)imidazo[1,2-b]pyridazin-2-yl)-5,5,5-trifluoro-4,4-dimethylpentyl)-4-(trifluoromethyl)-1,2,5-oxadiazole-3-carboxamide], for which the IC50 was less than 0.05 µM in test [1] and less than 0.05 µM in test [2] (Homo sapiens, Keratinocyte).
With `COC[C@H](c1cnn2cc(C(CCC3(C(F)(F)F)CC3)NC(=O)c3nonc3C)nc2c1)N1CC(F)(F)CNC1=O` (single isomer, unassigned) [Example 125, N—((R*)-1-(7-((S)-1-(5,5-Difluoro-2-oxotetrahydropyrimidin-1(2H)-yl)-2-methoxyethyl)imidazo[1,2-b]pyridazin-2-yl)-3-(1-(trifluoromethyl)cyclopropyl)propyl)-4-methyl-1,2,5-oxadiazole-3-carboxamide], the IC50 in test [1] is more than 0.1 µM; in test [2] (Homo sapiens, Keratinocyte), more than 0.1 µM.
On to `COC[C@H](c1cnn2cc([C@H](CCC(C)(C)C(F)(F)F)NC(=O)c3ncnn3C(C)C)nc2c1)N1CC(F)(F)CNC1=O` [Example 111, N—((S)-1-(7-((S)-1-(5,5-Difluoro-2-oxotetrahydropyrimidin-1(2H)-yl)-2-methoxyethyl)imidazo[1,2-b]pyridazin-2-yl)-5,5,5-trifluoro-4,4-dimethylpentyl)-1-isopropyl-1H-1,2,4-triazole-5-carboxamide], for which the IC50 was less than 0.05 µM in test [1] and less than 0.05 µM in test [2] (Homo sapiens, Keratinocyte).
Take `COC[C@H](c1cnn2cc([C@@H](NC(=O)c3nonc3C3CC3)[C@H](C)OC3CC3)nc2c1)N1CC(F)(F)CNC1=O` (relative stereo) [Example 55, N-((1R*,2S*)-2-cyclopropoxy-1-(7-((S)-1-(5,5-difluoro-2-oxotetrahydropyrimidin-1(2H)-yl)-2-methoxyethyl)imidazo[1,2-b]pyridazin-2-yl)propyl)-4-cyclopropyl-1,2,5-oxadiazole-3-carboxamide]: the IC50 in test [1] was more than 0.1 µM; in test [2] (Homo sapiens, Keratinocyte), more than 0.1 µM.
On to `COC[C@H](c1cnn2cc([C@@H](NC(=O)c3nonc3C3CC3)[C@H](C)OC3(C(F)(F)F)CC3)nc2c1)N1CC(F)(F)CNC1=O` (relative stereo) [Example 91, 4-Cyclopropyl-N-((1R*,2S*)-1-(7-((S)-1-(5,5-difluoro-2-oxotetrahydropyrimidin-1(2H)-yl)-2-methoxyethyl)imidazo[1,2-b]pyridazin-2-yl)-2-(1-(trifluoromethyl)cyclopropoxy)propyl)-1,2,5-oxadiazole-3-carboxamide], for which the IC50 in test [1] is 0.05 to 0.1 µM; in test [2] (Homo sapiens, Keratinocyte), more than 0.1 µM.
For the compound `COC[C@H](c1cnn2cc(C(CC(C)(C)C(C)(F)F)NC(=O)c3nonc3C3CC3)nc2c1)N1CC(F)(F)CNC1=O` (single isomer, unassigned) [Example 68, 4-Cyclopropyl-N—((S*)-1-(7-((S)-1-(5,5-difluoro-2-oxotetrahydropyrimidin-1(2H)-yl)-2-methoxyethyl)imidazo[1,2-b]pyridazin-2-yl)-4,4-difluoro-3,3-dimethylpentyl)-1,2,5-oxadiazole-3-carboxamide], the IC50 in test [1] is less than 0.05 µM; in test [2] (Homo sapiens, Keratinocyte), less than 0.05 µM.
As for “N—((S)-1-(7-((S)-2-Cyclopropoxy-1-(5,5-difluoro-2-oxotetrahydropyrimidin-1(2H)-yl-4,4,6,6-d4)ethyl)imidazo[1,2-b]pyridazin-2-yl)-5,5,5-trifluoro-4,4-dimethylpentyl)-1,2,5-oxadiazole-3-carboxamide trifluoroacetate [Example 131]”, the figures for the IC50 in test [1] and in test [2] were less than 0.05 µM and more than 0.1 µM, respectively.
`COC[C@H](c1cnn2cc([C@@H](NC(=O)c3nonc3C)C3CCC(F)(F)CC3)nc2c1)N1CC(F)(F)C(F)(F)CNC1=O` [Example 123, N—((S)-(4,4-Difluorocyclohexyl)(7-((S)-2-methoxy-1-(5,5,6,6-tetrafluoro-2-oxo-1,3-diazepan-1-yl)ethyl)imidazo[1,2-b]pyridazin-2-yl)methyl)-4-methyl-1,2,5-oxadiazole-3-carboxamide]: the IC50 was less than 0.05 µM in test [1] and 0.05 to 0.1 µM in test [2] (Homo sapiens, Keratinocyte).
The corresponding values for `COC[C@H](c1cnn2cc([C@@H](NC(=O)c3nocc3CC(F)(F)F)C3CCC(F)(F)CC3)nc2c1)N1CC(F)(F)CNC1=O` [Example 106, N—((S)-(7-((S)-1-(5,5-Difluoro-2-oxotetrahydropyrimidin-1(2H)-yl)-2-methoxyethyl)imidazo[1,2-b]pyridazin-2-yl)(4,4-difluorocyclohexyl)methyl)-4-(2,2,2-trifluoroethyl)isoxazole-3-carboxamide] are less than 0.05 µM and less than 0.05 µM.
The corresponding values for `COc1nonc1C(=O)N[C@@H](CCC(C)(C)C(F)(F)F)c1cn2ncc([C@@H](COC3CC3)N3CC(F)(F)CNC3=O)cc2n1` [Example 122, N—((S)-1-(7-((S)-2-Cyclopropoxy-1-(5,5-difluoro-2-oxotetrahydropyrimidin-1(2H)-yl)ethyl)imidazo[1,2-b]pyridazin-2-yl)-5,5,5-trifluoro-4,4-dimethylpentyl)-4-methoxy-1,2,5-oxadiazole-3-carboxamide] are less than 0.05 µM and less than 0.05 µM.
For the compound `Cc1nonc1C(=O)N[C@@H](CCC(C)(C)C(F)(F)F)c1cn2ncc(CN3C[C@H]4[C@@H](CNC3=O)C4(F)F)cc2n1` (relative stereo) [Example 121, N—((S)-1-(7-(((1R*,7S*)-8,8-Difluoro-4-oxo-3,5-diazabicyclo[5.1.0]octan-3-yl)methyl)imidazo[1,2-b]pyridazin-2-yl)-5,5,5-trifluoro-4,4-dimethylpentyl)-4-methyl-1,2,5-oxadiazole-3-carboxamide], the IC50 was less than 0.05 µM in test [1] and less than 0.05 µM in test [2] (Homo sapiens, Keratinocyte).
`COC[C@H](c1cnn2cc([C@@H](NC(=O)c3nonc3C(C)(F)F)C3CCC(F)(F)CC3)nc2c1)N1CC(F)(F)CNC1=O` [Example 127, N—((S)-(7-((S)-1-(5,5-Difluoro-2-oxotetrahydropyrimidin-1(2H)-yl)-2-methoxyethyl)imidazo[1,2-b]pyridazin-2-yl)(4,4-difluorocyclohexyl)methyl)-4-(1,1-difluoroethyl)-1,2,5-oxadiazole-3-carboxamide]: the IC50 in test [1] was less than 0.05 µM; in test [2] (Homo sapiens, Keratinocyte) it was less than 0.05 µM.
`[2H]C1([2H])NC(=O)N([C@H](COC2CC2)c2cnn3cc([C@@H](NC(=O)c4ccnn4C(C)C)C4CCC(F)(F)CC4)nc3c2)C([2H])([2H])C1(F)F` [Example 71, N—((S)-(7-((S)-2-Cyclopropoxy-1-(5,5-difluoro-2-oxotetrahydropyrimidin-1(2H)-yl-4,4,6,6-d4)ethyl)imidazo[1,2-b]pyridazin-2-yl)(4,4-difluorocyclohexyl)methyl)-1-isopropyl-1H-pyrazole-5-carboxamide]: the IC50 in test [1] is less than 0.05 µM; in test [2] (Homo sapiens, Keratinocyte), less than 0.05 µM.
For `[2H]C1([2H])NC(=O)N([C@H](COC2CC2)c2cnn3cc([C@@H](NC(=O)c4nonc4CC)C4CCC(F)(F)CC4)nc3c2)C([2H])([2H])C1(F)F` [Example 70, N—((S)-(7-((S)-2-Cyclopropoxy-1-(5,5-difluoro-2-oxotetrahydropyrimidin-1(2H)-yl-4,4,6,6-d4)ethyl)imidazo[1,2-b]pyridazin-2-yl)(4,4-difluorocyclohexyl)methyl)-4-ethyl-1,2,5-oxadiazole-3-carboxamide], the IC50 is less than 0.05 µM in test [1] and less than 0.05 µM in test [2] (Homo sapiens, Keratinocyte).
As for `COC[C@H](c1cnn2cc([C@@H](NC(=O)c3nonc3C3CC3)C(C3CC3)C3CC3)nc2c1)N1CC(F)(F)CNC1=O` [Example 103, 4-Cyclopropyl-N—((S)-2,2-dicyclopropyl-1-(7-((S)-1-(5,5-difluoro-2-oxotetrahydropyrimidin-1(2H)-yl)-2-methoxyethyl)imidazo[1,2-b]pyridazin-2-yl)ethyl)-1,2,5-oxadiazole-3-carboxamide], the IC50 was less than 0.05 µM in test [1] and less than 0.05 µM in test [2] (Homo sapiens, Keratinocyte).
Consider `[2H]C1([2H])NC(=O)N([C@H](COC)c2cnn3cc([C@@H](NC(=O)c4nonc4C4CC4)C4CCC(F)(F)CC4)nc3c2)C([2H])([2H])C1(F)F` [Example 72, 4-Cyclopropyl-N—((S)-(7-((S)-1-(5,5-difluoro-2-oxotetrahydropyrimidin-1(2H)-yl-4,4,6,6-d4)-2-methoxyethyl)imidazo[1,2-b]pyridazin-2-yl)(4,4-difluorocyclohexyl)methyl)-1,2,5-oxadiazole-3-carboxamide], for which the IC50 in test [1] is less than 0.05 µM; in test [2] (Homo sapiens, Keratinocyte), less than 0.05 µM.
With `COc1nonc1C(=O)N[C@@H](CCC(C)(C)C(F)(F)F)c1cn2ncc(CN3C[C@@H]4[C@H](CNC3=O)C4(F)F)cc2n1` (relative stereo) [Example 116, N—((S)-1-(7-(((1S*,7R*)-8,8-Difluoro-4-oxo-3,5-diazabicyclo[5.1.0]octan-3-yl)methyl)imidazo[1,2-b]pyridazin-2-yl)-5,5,5-trifluoro-4,4-dimethylpentyl)-4-methoxy-1,2,5-oxadiazole-3-carboxamide], the IC50 in test [1] was 0.05 to 0.1 µM; in test [2] (Homo sapiens, Keratinocyte) it was more than 0.1 µM.
